Laboratory results published in patent US20230257396A1, “MACROCYCLES AND THEIR USE” (BLOSSOMHILL THERAPEUTICS, INC., priority 2020, published 2023).

Experiments:
Experiment in all cases: KINOMEscan kinase binding assay (Eurofins/DiscoveRx), % Ctrl
Conditions in all cases: 1 μM
kinases [1] = molecular target: T1, kinases (Homo sapiens, UniProt P00533, G719S)
T1 construct: purchased Eurofins/DiscoveRx; host or cells: E. coli BL21-derived host (T7 phage display) for most kinases; HEK-293 for the rest
How it was run: (§1)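 Competition binding: DNA- or phage-tagged kinases (T7 phage in E. coli BL21, or HEK-293-expressed) with immobilized biotinylated ligand beads and test compound, 1 h at room temperature. Bead-bound kinase eluted and quantified by qPCR; % Ctrl = (compound − positive control)/(negative control − positive control) ×100 at a single compound concentration.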

kinases [2] = molecular target: T2, kinases (Homo sapiens, UniProt P07949)
T2 construct: purchased Eurofins/DiscoveRx; host or cells: E. coli BL21-derived host (T7 phage display) for most kinases; HEK-293 for the rest
How it was run: as §1

kinases [3] = molecular target: T3, kinases (Homo sapiens, UniProt P10721, D816H)
T3 construct: purchased Eurofins/DiscoveRx; host or cells: E. coli BL21-derived host (T7 phage display) for most kinases; HEK-293 for the rest
How it was run: as §1

kinases [4] = molecular target: T4, kinases (Homo sapiens, UniProt P00519, E255K)
T4 construct: purchased Eurofins/DiscoveRx; host or cells: E. coli BL21-derived host (T7 phage display) for most kinases; HEK-293 for the rest
How it was run: as §1

kinases [5] = molecular target: T5, kinases (Homo sapiens, UniProt P42684)
T5 construct: purchased Eurofins/DiscoveRx; host or cells: E. coli BL21-derived host (T7 phage display) for most kinases; HEK-293 for the rest
How it was run: as §1

kinases [6] = molecular target: T6, kinases (Homo sapiens, UniProt P00533)
T6 construct: purchased Eurofins/DiscoveRx; host or cells: E. coli BL21-derived host (T7 phage display) for most kinases; HEK-293 for the rest
How it was run: as §1

kinases [7] = molecular target: T7, kinases (Homo sapiens, UniProt P10721, L576P)
T7 construct: purchased Eurofins/DiscoveRx; host or cells: E. coli BL21-derived host (T7 phage display) for most kinases; HEK-293 for the rest
How it was run: as §1

kinases [8] = molecular target: T8, kinases (Homo sapiens, UniProt P00519, Q252H)
T8 construct: purchased Eurofins/DiscoveRx; host or cells: E. coli BL21-derived host (T7 phage display) for most kinases; HEK-293 for the rest
How it was run: as §1

kinases [9] = molecular target: T9, kinases (Homo sapiens, UniProt P36888, D835V)
T9 construct: purchased Eurofins/DiscoveRx; host or cells: E. coli BL21-derived host (T7 phage display) for most kinases; HEK-293 for the rest
T9 sequence (P36888 27-993 D835V): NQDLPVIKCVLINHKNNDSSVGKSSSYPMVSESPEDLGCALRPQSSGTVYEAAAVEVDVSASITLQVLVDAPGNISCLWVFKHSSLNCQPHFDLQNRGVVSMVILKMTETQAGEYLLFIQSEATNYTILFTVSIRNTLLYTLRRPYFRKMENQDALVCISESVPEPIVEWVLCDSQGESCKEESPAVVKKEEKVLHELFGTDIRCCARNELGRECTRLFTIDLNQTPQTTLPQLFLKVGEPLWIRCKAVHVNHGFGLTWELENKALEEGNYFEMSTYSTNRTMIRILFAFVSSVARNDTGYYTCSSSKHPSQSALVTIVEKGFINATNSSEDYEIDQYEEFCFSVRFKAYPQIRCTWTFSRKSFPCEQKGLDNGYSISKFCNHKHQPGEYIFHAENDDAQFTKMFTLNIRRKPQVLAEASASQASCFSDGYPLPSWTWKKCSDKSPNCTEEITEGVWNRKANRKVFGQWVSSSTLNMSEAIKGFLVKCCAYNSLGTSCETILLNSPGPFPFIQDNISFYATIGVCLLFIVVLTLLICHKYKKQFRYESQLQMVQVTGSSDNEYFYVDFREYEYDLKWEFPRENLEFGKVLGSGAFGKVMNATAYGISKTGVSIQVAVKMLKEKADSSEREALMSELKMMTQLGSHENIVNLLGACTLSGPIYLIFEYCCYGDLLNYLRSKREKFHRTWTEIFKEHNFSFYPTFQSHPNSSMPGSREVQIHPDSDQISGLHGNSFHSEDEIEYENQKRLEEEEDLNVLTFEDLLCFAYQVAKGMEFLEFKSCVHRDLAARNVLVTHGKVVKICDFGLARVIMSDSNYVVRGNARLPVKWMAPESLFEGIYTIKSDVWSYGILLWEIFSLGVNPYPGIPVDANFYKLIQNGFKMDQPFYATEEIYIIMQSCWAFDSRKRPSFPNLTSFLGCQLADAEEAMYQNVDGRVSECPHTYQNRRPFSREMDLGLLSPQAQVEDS
How it was run: as §1

kinases [10] = molecular target: T10, kinases (Homo sapiens, UniProt P00519, Y253F)
T10 construct: purchased Eurofins/DiscoveRx; host or cells: E. coli BL21-derived host (T7 phage display) for most kinases; HEK-293 for the rest
How it was run: as §1

kinases [11] = molecular target: T11, kinases (Homo sapiens, UniProt P00519, H396P)
T11 construct: purchased Eurofins/DiscoveRx; host or cells: E. coli BL21-derived host (T7 phage display) for most kinases; HEK-293 for the rest
How it was run: as §1

kinases [12] = molecular target: T12, kinases (Homo sapiens, UniProt P00533, L861Q)
T12 construct: purchased Eurofins/DiscoveRx; host or cells: E. coli BL21-derived host (T7 phage display) for most kinases; HEK-293 for the rest
How it was run: as §1

kinases [13] = molecular target: T13, kinases (Homo sapiens, UniProt P00533, T790M)
T13 construct: purchased Eurofins/DiscoveRx; host or cells: E. coli BL21-derived host (T7 phage display) for most kinases; HEK-293 for the rest
How it was run: as §1

kinases [14] = molecular target: T14, kinases (Homo sapiens, UniProt P07949, V804L)
T14 construct: purchased Eurofins/DiscoveRx; host or cells: E. coli BL21-derived host (T7 phage display) for most kinases; HEK-293 for the rest
How it was run: as §1

kinases [15] = molecular target: T15, kinases (Homo sapiens, UniProt P00519, M351T)
T15 construct: purchased Eurofins/DiscoveRx; host or cells: E. coli BL21-derived host (T7 phage display) for most kinases; HEK-293 for the rest
How it was run: as §1

T3 sequence (P10721 26-976 D816H): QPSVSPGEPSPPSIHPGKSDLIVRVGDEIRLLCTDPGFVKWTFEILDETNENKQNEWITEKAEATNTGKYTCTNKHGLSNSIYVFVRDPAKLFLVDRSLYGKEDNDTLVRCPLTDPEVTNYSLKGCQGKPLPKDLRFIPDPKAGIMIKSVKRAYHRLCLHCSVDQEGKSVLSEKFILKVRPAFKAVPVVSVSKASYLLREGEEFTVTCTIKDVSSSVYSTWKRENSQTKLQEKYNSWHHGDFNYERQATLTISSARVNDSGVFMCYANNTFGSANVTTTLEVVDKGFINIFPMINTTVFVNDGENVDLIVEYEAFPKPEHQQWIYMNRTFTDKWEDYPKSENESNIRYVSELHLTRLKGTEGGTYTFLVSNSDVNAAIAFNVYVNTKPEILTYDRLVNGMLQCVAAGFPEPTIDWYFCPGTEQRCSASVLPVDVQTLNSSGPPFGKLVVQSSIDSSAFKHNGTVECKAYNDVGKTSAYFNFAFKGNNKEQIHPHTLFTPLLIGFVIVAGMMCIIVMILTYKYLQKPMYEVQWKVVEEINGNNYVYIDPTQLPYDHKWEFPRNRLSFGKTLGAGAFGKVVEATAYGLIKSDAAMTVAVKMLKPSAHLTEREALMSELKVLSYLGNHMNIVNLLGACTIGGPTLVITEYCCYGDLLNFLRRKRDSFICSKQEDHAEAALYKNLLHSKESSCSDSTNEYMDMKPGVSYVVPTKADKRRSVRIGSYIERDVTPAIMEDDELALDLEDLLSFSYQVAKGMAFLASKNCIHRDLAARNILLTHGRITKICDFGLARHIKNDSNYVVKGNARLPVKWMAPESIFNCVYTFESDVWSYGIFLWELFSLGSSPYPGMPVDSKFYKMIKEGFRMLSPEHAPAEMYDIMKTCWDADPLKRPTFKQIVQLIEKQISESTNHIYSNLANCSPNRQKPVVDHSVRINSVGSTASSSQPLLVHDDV
T2 sequence (P07949 29-1114): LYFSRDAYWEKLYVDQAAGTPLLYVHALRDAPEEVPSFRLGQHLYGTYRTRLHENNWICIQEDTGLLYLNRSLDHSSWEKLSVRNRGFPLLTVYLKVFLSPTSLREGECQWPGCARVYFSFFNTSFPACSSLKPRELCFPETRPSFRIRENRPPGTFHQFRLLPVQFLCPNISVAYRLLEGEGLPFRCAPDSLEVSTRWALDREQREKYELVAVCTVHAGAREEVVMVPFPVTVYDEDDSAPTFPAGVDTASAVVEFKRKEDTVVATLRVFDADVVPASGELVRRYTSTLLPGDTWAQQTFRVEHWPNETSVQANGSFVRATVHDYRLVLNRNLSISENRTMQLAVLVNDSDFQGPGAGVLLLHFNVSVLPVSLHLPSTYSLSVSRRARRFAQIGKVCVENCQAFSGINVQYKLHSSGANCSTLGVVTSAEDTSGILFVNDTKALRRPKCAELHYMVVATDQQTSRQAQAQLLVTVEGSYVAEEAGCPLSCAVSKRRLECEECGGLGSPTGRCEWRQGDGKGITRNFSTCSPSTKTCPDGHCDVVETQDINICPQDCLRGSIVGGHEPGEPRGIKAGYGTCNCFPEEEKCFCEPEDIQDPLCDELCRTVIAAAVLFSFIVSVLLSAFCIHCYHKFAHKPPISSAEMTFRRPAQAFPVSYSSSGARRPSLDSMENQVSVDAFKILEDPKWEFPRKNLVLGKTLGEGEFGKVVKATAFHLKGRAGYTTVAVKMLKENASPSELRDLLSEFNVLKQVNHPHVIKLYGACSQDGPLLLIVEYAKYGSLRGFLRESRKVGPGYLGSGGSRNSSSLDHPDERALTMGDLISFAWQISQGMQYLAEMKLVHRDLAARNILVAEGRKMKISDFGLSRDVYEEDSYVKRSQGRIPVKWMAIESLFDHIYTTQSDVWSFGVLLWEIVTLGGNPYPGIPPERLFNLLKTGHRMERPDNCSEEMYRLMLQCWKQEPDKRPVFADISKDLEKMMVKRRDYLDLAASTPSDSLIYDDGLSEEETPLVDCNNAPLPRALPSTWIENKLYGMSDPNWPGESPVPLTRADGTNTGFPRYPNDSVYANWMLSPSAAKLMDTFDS
T7 sequence (P10721 26-976 L576P): as the sequence (P10721 26-976 D816H) above, with L551P, H791D counted along it
T5 sequence (P42684 whole entry): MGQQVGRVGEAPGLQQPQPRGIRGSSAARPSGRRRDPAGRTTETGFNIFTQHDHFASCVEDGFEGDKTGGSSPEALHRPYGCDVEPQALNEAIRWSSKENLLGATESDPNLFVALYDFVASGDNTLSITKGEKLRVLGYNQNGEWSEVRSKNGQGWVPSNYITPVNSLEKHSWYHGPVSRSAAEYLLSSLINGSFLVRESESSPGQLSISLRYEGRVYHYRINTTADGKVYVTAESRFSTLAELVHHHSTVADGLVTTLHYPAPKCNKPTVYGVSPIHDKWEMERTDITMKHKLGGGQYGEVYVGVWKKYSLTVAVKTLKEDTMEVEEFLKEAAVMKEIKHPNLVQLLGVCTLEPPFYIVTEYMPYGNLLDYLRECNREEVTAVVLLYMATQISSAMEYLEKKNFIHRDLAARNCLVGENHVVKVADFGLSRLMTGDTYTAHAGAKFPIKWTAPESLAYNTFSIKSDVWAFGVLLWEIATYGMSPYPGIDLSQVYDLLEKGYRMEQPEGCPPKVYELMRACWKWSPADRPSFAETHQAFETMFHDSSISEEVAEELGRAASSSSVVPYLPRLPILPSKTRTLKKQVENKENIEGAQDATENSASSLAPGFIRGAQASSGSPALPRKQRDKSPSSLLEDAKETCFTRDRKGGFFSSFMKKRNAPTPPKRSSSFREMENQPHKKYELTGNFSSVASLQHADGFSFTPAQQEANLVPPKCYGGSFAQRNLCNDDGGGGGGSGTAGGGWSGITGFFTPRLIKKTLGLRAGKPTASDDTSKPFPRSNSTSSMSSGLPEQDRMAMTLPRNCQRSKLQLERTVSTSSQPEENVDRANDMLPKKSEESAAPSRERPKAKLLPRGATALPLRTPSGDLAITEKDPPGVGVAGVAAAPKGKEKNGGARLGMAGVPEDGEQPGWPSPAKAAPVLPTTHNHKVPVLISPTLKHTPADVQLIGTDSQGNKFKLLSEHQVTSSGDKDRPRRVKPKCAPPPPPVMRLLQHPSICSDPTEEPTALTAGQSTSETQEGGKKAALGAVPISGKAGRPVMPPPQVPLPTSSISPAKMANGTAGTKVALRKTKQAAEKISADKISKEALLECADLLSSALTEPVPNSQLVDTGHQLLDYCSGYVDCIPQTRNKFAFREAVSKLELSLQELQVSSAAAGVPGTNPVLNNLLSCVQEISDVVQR
T14 sequence (P07949 29-1114 V804L): as the sequence (P07949 29-1114) above, with V776L counted along it

Row | Structure (SMILES) | % Ctrl, EGFR(G719S) (kinases [1]; EGFR(G719S)) [% Ctrl] | % Ctrl, RET (kinases [2]; RET) [% Ctrl] | % Ctrl, KIT(D816H) (kinases [3]; KIT(D816H)) [% Ctrl] | % Ctrl, ABL1(E255K)-phosphorylated (kinases [4]; ABL1(E255K)-phosphorylated) [% Ctrl] | % Ctrl, ABL2 (kinases [5]; ABL2) [% Ctrl] | % Ctrl, EGFR (kinases [6]; EGFR) [% Ctrl] | % Ctrl, KIT(L576P) (kinases [7]; KIT(L576P)) [% Ctrl] | % Ctrl, ABL1(Q252H)-nonphosphorylated (kinases [8]; ABL1(Q252H)-nonphosphorylated) [% Ctrl] | % Ctrl, ABL1(Q252H)-phosphorylated (kinases [8]; ABL1(Q252H)-phosphorylated) [% Ctrl] | % Ctrl, FLT3(D835V) (kinases [9]; FLT3(D835V)) [% Ctrl] | % Ctrl, ABL1(Y253F)-phosphorylated (kinases [10]; ABL1(Y253F)-phosphorylated) [% Ctrl] | % Ctrl, ABL1(H396P)-nonphosphorylated (kinases [11]; ABL1(H396P)-nonphosphorylated) [% Ctrl] | % Ctrl, ABL1(H396P)-phosphorylated (kinases [11]; ABL1(H396P)-phosphorylated) [% Ctrl] | % Ctrl, EGFR(L861Q) (kinases [12]; EGFR(L861Q)) [% Ctrl] | % Ctrl, EGFR(T790M) (kinases [13]; EGFR(T790M)) [% Ctrl] | % Ctrl, RET(V804L) (kinases [14]; RET(V804L)) [% Ctrl] | % Ctrl, ABL1(M351T)-phosphorylated (kinases [15]; ABL1(M351T)-phosphorylated) [% Ctrl] | further results
1 | Cc1cc2c([nH]1)/C=C1\C(=O)Nc3ccc(cc31)-c1ccnn1CCOCCNC2=O [Ex.39, [19a(20)Z]-2-methyl-6,7,9,10-tetrahydro-1H-15,17-(ethanediylidene)pyrazolo[1,5-d]dipyrrolo[3,4-h:2′,3′-k][1,4,14]oxadiazacyclohexadecine-4,19(5H,18H)-dione] | 77 | 85 | 83 | 72 | 89 | 77 | 100 | 84 | 93 | 35 | 98 | 74 | 82 | 68 | 99 | 87 | 58 | –
2 | Cc1cc2c([nH]1)/C=C1\C(=O)Nc3ccc(cc31)-c1cnn(C)c1CNCCN(C)C2=O [Ex. 125, [3a(4)Z]-6,9,14-trimethyl-9,10,11,12,13,14-hexahydro-1,17-(ethanediylidene)pyrazolo[4,3-m]dipyrrolo[3,2-f:3′,4′-i][1,4]diazacyclopentadecine-3,8(2H,5H)-dione] | 88 | 0 | 0.65 | 0.05 | 2.2 | 61 | 5.9 | 0 | 0.05 | 0.25 | 0 | 0 | 0.1 | 77 | 11 | 0 | 0.1 | –
3 | Cc1cc2c([nH]1)/C=C1\C(=O)Nc3cnc(cc31)-c1cn[nH]c1CNCCN(C)C2=O [Ex. 55, [3a(4)Z]-6,9-dimethyl-9,10,11,12,13,14-hexahydro-17,1-(azenometheno)pyrazolo[4,3-m]dipyrrolo[3,2-f:3′,4′-i][1,4]diazacyclopentadecine-3,8(2,5H)-dione] | – | – | – | – | – | – | – | – | – | – | – | – | – | – | – | – | – | % Ctrl, EGFR(G719S) (kinases [1]; target EGFR(G719S)): 67 % Ctrl; % Ctrl, RET (kinases [2]; target RET): 4.2 % Ctrl; % Ctrl, KIT(D816H) (kinases [3]; target KIT(D816H)): 18 % Ctrl; % Ctrl, ABL1(E255K)-phosphorylated (kinases [4]; target ABL1(E255K)-phosphorylated): 2.6 % Ctrl; % Ctrl, ABL2 (kinases [5]; target ABL2): 58 % Ctrl; % Ctrl, EGFR (kinases [6]; target EGFR): 59 % Ctrl; % Ctrl, KIT(L576P) (kinases [7]; target KIT(L576P)): 17 % Ctrl; % Ctrl, ABL1(Q252H)-nonphosphorylated (kinases [8]; target ABL1(Q252H)-nonphosphorylated): 2.8 % Ctrl; % Ctrl, ABL1(Q252H)-phosphorylated (kinases [8]; target ABL1(Q252H)-phosphorylated): 1.7 % Ctrl; % Ctrl, FLT3(D835V) (kinases [9]; target FLT3(D835V)): 1.1 % Ctrl; % Ctrl, ABL1(Y253F)-phosphorylated (kinases [10]; target ABL1(Y253F)-phosphorylated): 3.1 % Ctrl; % Ctrl, ABL1(H396P)-nonphosphorylated (kinases [11]; target ABL1(H396P)-nonphosphorylated): 0.8 % Ctrl; % Ctrl, ABL1(H396P)-phosphorylated (kinases [11]; target ABL1(H396P)-phosphorylated): 3.6 % Ctrl; % Ctrl, EGFR(L861Q) (kinases [12]; target EGFR(L861Q)): 58 % Ctrl; % Ctrl, EGFR(T790M) (kinases [13]; target EGFR(T790M)): 70 % Ctrl; % Ctrl, RET(V804L) (kinases [14]; target RET(V804L)): 0.3 % Ctrl; % Ctrl, ABL1(M351T)-phosphorylated (kinases [15]; target ABL1(M351T)-phosphorylated): 3.7 % Ctrl
